According to patent publication US20110059916A1, “Methods and Compositions for Inducing Torpor in a Subject” (priority 2006, published 2011):

Columns and labels:
[1] = HPLC analysis of adenylates in blood, liver and muscle during SA; settings: mice in SA given a second injection, red blood cells, 2 hours later
Procedure: HPLC analysis for adenine nucleotides: Blood was rapidly removed from mice and frozen in liquid Nitrogen. Nucleotides were extracted from frozen samples using about 0.4 N perchloric acid as previously described.^35 Briefly, about 425 μl of ice-cold about 0.4 N perchloric acid was added to frozen blood samples and mixed. After about 10 μl was removed for protein determination, the remainder was centrifuged at about 14,000×g for about 10 minutes at about 4° C. The supernatant (e.g., 305 μl) was transferred to a clean tube, neutralized with about 178 μl of about 0.6 M KHCO3/about 0.72 M KOH and acidified with about 55 μl of about 0.18 M ammonium phosphate solution (pH 5.1) and one drop of dilute phosphoric acid. The samples were centrifuged and the supernatants were stored at about −80° C. for analysis. Blood extracts and adenine nucleotides ATP, ADP, AMP, c-AMP and adenosine (e.g., from Sigma, MO, USA) were separated and quantified using reversed-phase HPLC (e.g., Waters, Millipore Corp., Bedford, Mass.) analysis on a Partisphere bonded phase reverse phase C18 cartridge column at a flow rate of 1.5 ml/minutes.^36 The mobile phase was 0.02 M NH4H2PO4, pH 5.1, with a superimposed methanol gradient: about 0% for about 0-4 minutes, about 0-8% for about 4-6 minutes, about 8-20% for about 6-8 minutes, and about 20% for about 8-18 minutes.

[2] = Serum glucose and liver procolipase expression during SA and arousal; type: in vivo, mouse
Procedure: Experimental Procedures. Each mouse was injected intraperitoneally (IP) with the appropriate dosages of 5'-AMP (Sigma catalog# […]) dissolved in phosphate buffered saline. They were immediately put into individual 500 ml pre-cooled beakers placed in a chamber at 4° C. […] CBT of the mice was monitored by a digital thermometer (Fisher Scientific, USA, catalog 15-077-8) via a micro stainless steel probe (1 mm) placed 1 cm into the rectal opening of the mouse. Temperature readings were taken at 15-20 sec after insertion of the probe. Once the CBT dropped to 15±1.0° C., mice were then transferred to a regular mouse cage with bedding and kept in an environment chamber at a temperature set at 14±0.5° C. or 15±0.5° C. […] CBT. Mice in SA were visually monitored for arousal. Once arousal was apparent, the animals were returned to standard housing. After 12 h of SA, mice were returned to 20-22° C. AET housing with food and water given ad labitum. For 4 consecutive days after SA, food intakes were determined by weight differential of fresh chow every 24 h at ZT2. Body weight was measured at every ZT2. Respiration rate was determined by placing a mouse inside an open-end 50 ml tube and the number of breaths were determined by counting the number of intakes and exhales over 10 sec intervals. These studies were carried out under institutionally approved animal protocol HSC-AWC 04-022. Analysis of serum glucose sample from mice at 2-3 h into SA was about 60% higher than control animals with CBT of 37° C. However, the serum blood glucose level drops to 40% below control animals at spontaneous arousal. […] A decline in blood glucose level can be reversed by increasing gluconeogenesis and reduced glucose need of major organs through β-oxidation of fatty acids. […] Liver RNA obtained from mice in normal state, SA, arousal by rewarming and spontaneous arousal was analyzed for procolipase expression by Northern blot analysis. […]

[3] = Heart rate at high concentrations; type: in vivo
[4] = Blood glucose after 5′-AMP injection; type: in vivo, mouse; settings: injections
[5] = tested on: mClps; experiment: mClps (procolipase) expression after injection into light-dark mice, Northern blot / RT-PCR; type: in vivo, mouse; settings: for mClps expression in the liver: injected into light-dark mice, Northern blot
Description: Northern blot and RT-PCR analysis: Tissues were collected and frozen in liquid nitrogen and stored at about -80 C. The total RNA was isolated from mouse livers following standard procedures.^31 Twenty micrograms of total RNA was separated by electrophoresis and transferred onto a nylon membrane. The blots were hybridized with ^32P-labeled cDNA probes, washed and exposed to X-ray film as previously described.^30 Colipase probe was the complete cDNA (e.g., Genbank No: BC042935); the Gapdh probe was the Pst I fragment of rat Gapdh cDNA.^32 The primer pair used to measure colipase expression was SEQ ID NO:1 [NT] and SEQ ID NO:2 [NT], The primer pair used to measure Gapdh expression as an internal control was SEQ ID NO:3 [NT] and SEQ ID NO:4 [NT] 720 by probe for mouse pancreatic lipase related protein 2 (mPlrp2) was generated by RT-PCR using oligos LipaseF SEQ ID NO:5 [NT] and […] NO:6 [NT] from liver mRNA.

[6] = type: in vivo, mouse
Procedure: They were immediately put into individual 500 ml pre-cooled beakers placed in a chamber at 4° C. […] CBT of the mice was monitored by a digital thermometer (Fisher Scientific, USA, catalog 15-077-8) via a micro stainless steel probe (1 mm) placed 1 cm into the rectal opening of the mouse. Temperature readings were taken at 15-20 sec after insertion of the probe. Once the CBT dropped to 15±1.0° C., mice were then transferred to a regular mouse cage with bedding and kept in an environment chamber at a temperature set at 14±0.5° C. or 15±0.5° C. Mice in SA were visually monitored for arousal. Once arousal was apparent, the animals were returned to standard housing. After 12 h of SA, mice were returned to 20-22° C. AET housing with food and water given ad libitum. For 4 consecutive days after SA, food intakes were determined by weight differential of fresh chow and water after every 24 h at ZT2. Body weight was measured at every ZT2. Respiration rate was determined by placing a mouse inside an open-end 50 ml tube and the number of breaths were determined by counting the number of intakes and exhales over 10 sec intervals.
AET for about 60 min. Markedly different behavioral responses to 4° C. AET were observed. […] In contrast, mice injected with 5′-AMP maintained a relaxed posture and no apparent shivering. […] As CBT dropped below 31° C., the mice retained a considerable cognitive response to tactile stimuli indicating a state of torpor (T). However, when CBT dropped to 18-22° C., the mice lost much of their locomotor mobility but had the ability to reverse flip (RF) to right themselves when they were placed on their backs or sides. When CBT dropped below 17° C., this RF ability was lost and the animals entered a state of SA. When laid on their sides or backs, the mice appeared in a suspended animation state with out-stretched limbs and low respiration rates.
These observations raised questions concerning the relative contribution of 5′-AMP, AET and the CBT in mediating SA. To address these issues, the relationship between 5′-AMP and SA was investigated. […] AET for about 60 min.
AET to await spontaneous arousal.
To identify the driver of SA, the relationship between CBT of mice and the AET was investigated. Once in SA, mice were maintained either at 14±0.5° C. or 15±0.5° C. AET. […] Next, the arousal responses of mice kept at 14±0.5° C. or 15±0.5° C. AET were compared. The majority of mice maintained at 15±0.5° C. AET could spontaneously aroused from SA (FIG. 35b). […] When these mice were subsequently placed at a higher AET, they aroused spontaneously and could enter the S stage. A period of SA longer than 14 h was associated with a decline in the ability of the animal to enter the S stage after arousal by warming. […] The underlying cause(s) of death remains unclear.
Together, the foregoing studies indicate that CBT is a major driver of SA in direct response to a low AET. To obtain additional support for this conclusion, the effects of AET on the recovery rate from SA was investigated. Groups of mice (n=4) in SA with a CBT of about 15° C. were transferred into environments with increasing AET's. The time required for each animal's CBT to return to 37° C. was measured (FIG. 35c). A direct correlation between the increase in AET and the recovery rate from SA was seen. To determine whether there were any long-term negative effects from SA, food intake and body weight were measured for several days as an indirect assessment of health status. Mice (n=4) that exited SA spontaneously were used for these studies.

[7] = Daily injection of 5′-AMP into morbid obese Ob/Ob mice: body weight and food intake; type: in vivo; settings: Ob/Ob mouse, daily injection 5 then 2.5 umol/gbw, compared with saline
Description: This was then decrease to 2.5 umol/gbw for the rest of the studies.

[8] = tested on: AMPK; settings: rat muscle, via AMPK; cited from earlier work
[9] = cited from earlier work
[10] = IP, above 0.25 mg/gbw, chamber at 4° C.
[11] = mouse, 4° C. environment for the cooling phase

For `Nc1ncnc2c1ncn2[C@@H]1O[C@H](COP(=O)(O)O)[C@@H](O)[C@H]1O` [5′-AMP, 5′-adenosine monophosphate], the “ATP level after a second injection” value [1] was “steep drop in ATP level”, the “serum glucose higher than control animals” value ([2]; 2-3 h into SA, control CBT 37° C.) was “about 60%” and the “serum blood glucose below control animals” value ([2]; at spontaneous arousal) was 40%. For the same compound, the “procolipase expression in liver” value ([2]; mice that had aroused spontaneously, Northern blot) was “robust level of procolipase expression”, the heart rate [3] was “slows the heart rate” and the blood glucose levels [4] was “reduce the blood glucose levels”. For the same compound, the “mClps expression in peripheral tissues” value ([5]; RT-PCR) was “detected in all peripheral tissues sampled except the brain”, the “mClps expression in the liver” value [5] was “induced mClps expression” and the “length of SA as a function of 5′-AMP dose” value ([6]; 0.25 to 1.5 mg/gbw, maintained at 15±0.5° C. AET until spontaneous arousal) was “considerable overlap in the arousal time”. For the same compound, the “effective dosage (ED50) that induced at least 50% of the mice to enter SA” value ([6]; IP, 4° C. AET for about 60 min, CBT reduction to at least 15° C.) was 0.125 mg/gbw, the CBT reached [6, 10] was 15±1.0 °C and the thermo-regulatory responses [6, 10] was “blocked all thermo-regulatory responses”. For the same compound, the “time for CBT drop” value ([6]; IP, above 0.25 mg/gbw, chamber at 4° C., CBT to 15±1.0° C.) was 60 ± 10 min, the “CBT above ambient environmental temperature (AET) during SA” value ([6]; mice in SA) was 1-2 °C and the “dose that can induce deep torpor” value ([6]; mouse) was 5-7.5 mg/g body weight. For the same compound, the “ED50 for inducing torpor” value [6, 11] was “approximately 0.15 mg/gram body weight”, the “ED100 for inducing torpor” value [6, 11] was “approximately 0.25 mg/g body weight” and the “body weight after SA” value ([6]; mouse, in vivo) was “no significant difference in body weight”. The “food intake after SA” value ([6]; mouse, in vivo) was “moderately lower food intake”, the “respiration rate in SA” value ([6]; normal about 120 breaths per min, CBT below 17° C.) was “reduced by at least two-thirds” and the CBT after injection (high dose, from about 37° C., during about the first hour, ambient room temperature 24° C.) was “about 27 °C”. For the same compound, the “adverse effects on the torpid mice” value (mouse, in vivo) was “No apparent adverse effects”, the length of torpor (various dosages, wild type mice) was “dependent on the dosage” and the body weight [7] was “weight loss”. The “satiety / food intake” value [7] was “lower satiety”.

In the case of `Nc1ncnc2c1ncn2[C@@H]1O[C@H](COP(=O)(O)OP(=O)(O)O)[C@@H](O)[C@H]1O` [ADP, adenosine 5′-diphosphate], the “mClps expression in the liver” value [5] is reported as “did not induce mClps expression”.

For `NC(=O)c1ncn([C@@H]2O[C@H](CO)[C@@H](O)[C@H]2O)c1N` [AICAR, 5-aminoimidazole-4-carboxamide ribonucleoside], the fatty acid oxidation [8] is listed as “increase fatty acid oxidation”.

With `Nc1ncnc2c1ncn2[C@@H]1O[C@H](COP(=O)(O)OP(=O)(O)OP(=O)(O)O)[C@@H](O)[C@H]1O` [ATP] the “mClps expression in the liver” value [5] was “did not induce mClps expression”.

In the case of `CCNC(=O)[C@H]1O[C@@H](n2cnc3c(N)ncnc32)[C@H](O)[C@@H]1O` [NECA], the “mClps expression in the liver” value [5] is reported as “did not induce colipase expression”.

For `Nc1ncnc2c1ncn2[C@@H]1O[C@H](CO)[C@@H](O)[C@H]1O` [adenosine], the water solubility [9] is given as “very low” and the “mClps expression in the liver” value [5] is given as “induced mClps expression”.

For `Nc1ncnc2c1ncn2[C@@H]1O[C@@H]2COP(=O)(O)O[C@H]2[C@H]1O` [c-AMP], the “mClps expression in the liver” value [5] was “did not induce mClps expression”.
